Assay results taken from patent US20080306019A1, “Dopamine Receptor Agonists in the Treatment and Prevention of Hiv-Induced Dementia” (priority 2005, published 2008).

System: ovariectomized female Sprague-Dawley rats
Experiment: IV cocaine-induced locomotor activity after intra-accumbal Tat (1-72) (Example 14)
Type: in vivo, rat
Conditions: for mean total activity (±SEM): IV cocaine 3.0 mg/kg; for mean TIC (time in center): across days; for TIC, acute (Day 1): acute IV cocaine
Source text: Animals: Sixty-four adult ovariectomized female, Sprague-Dawley rats (70 days old) were obtained from Harlan Laboratories, Inc. (Indianapolis, Ind.). All rats were surgically implanted with an Intracath IV catheter (22 ga, Becton/Dickinson General Medical Corp., Grand Prarie, Tex.), which was used as a SC, dorsally implanted port for chronic IV injections. The subcutaneous implantable access port for rats was developed and described by Mactutus et al. (1994). Ovariectomized rats were used because estrogen is protective against the neurotoxic effects of Tat (Wallace et al., 2006). Serial ovariectomy and indwelling jugular catheter surgeries occurred for all rats during the same procedure. Upon arrival at the animal care facilities, rats were placed in quarantine for 7 days, and then transferred to the colony. Animals were pair housed throughout the experiment and the catheters were flushed daily with 0.2 ml of heparinized (2.5%) saline. Rodent food (Pro-Lab Rat, Mouse Hamster Chow #3000) and water were provided ad lib. The colony was maintained at 21±2° C., 50%±10% relative humidity and a 12L: 12D cycle with lights on at 0700 h (EST).
Locomotor activity: Habituation: Rats in the vehicle-saline (VEH-SAL), Tat-saline (Tat-SAL), vehicle-cocaine (VEH-COC), and Tat-cocaine (TAT-COC) groups were habituated to the locomotor activity chambers for two 60-min sessions, one/day. Twenty four hours after the second habituation session, all rats were injected with IV saline and placed into the activity chambers for 30-min to measure baseline activity. The activity monitors were square (40×40 cm) open-field chambers (Hamilton-Kinder Inc., Poway, Calif.) that detected free movement of animals by infrared photocell interruptions. This equipment used an infrared photocell grid (32 emitter/detector pairs) to measure locomotor activity. The chambers were converted into round (˜40 cm diameter) compartments by adding clear Plexiglas inserts; photocell emitter/detector pairs were tuned by the manufacturer to handle the extra perspex width. Circular chambers increase the sensitivity to detect locomotor activity (Harrod et al., 2006). All activity monitors were located in an isolated room.
Intra-accumbal Tat microinjection: All rats received intra-accumbal Tat or vehicle (VEH; physiological saline) injections approximately 24 hours after the saline baseline activity session and then received subsequent IV injections of cocaine (3.0 mg/kg/injection) or saline according to a 2×2, protein×drug, design. […] Tat was therefore administered to the core region of the N Acc to determine if the sensitization process was disrupted. Rats were administered intra-accumbal Tat or VEH injections according to methods previously described (Bansal et al., 2000; Aksenov et al., 2003). Briefly, rats were anesthetized using a mixture of ketamine hydrochloride and xylazine by intraperatoneal (IP) injection (7.5 mg ketamine/100 gb.wt. […].). 15 μg/l of Tat was injected bilaterally, using a silanized Hamilton Syringe at the following coordinates: 1.8 mm anterior, ±1.6 mm lateral, and 7.0 mm ventral from bregma on the skull surface, over an interval of one minute, with a one minute tissue recovery period before withdrawal.
IV cocaine-induced locomotor activity: Twenty-four hours after rats received bilateral intra-accumbal injections, IV cocaine or saline was administered. The animals were immediately placed into locomotor activity chambers following cocaine or saline. The animals' locomotor activity response to cocaine was assessed for 30 minutes on only two occasions: immediately after the first (Day 1) and last (Day 14) cocaine injections; however, rats were administered daily IV cocaine or saline injections in the home cage on days 2-13. […]

COC(=O)[C@H]1[C@@H](OC(=O)c2ccccc2)C[C@@H]2CC[C@H]1N2C.Cl [cocaine, Cocaine hydrochloride]
total activity, repeated IV cocaine (14 days): induced behavioral sensitization of total activity
mean total activity (±SEM) (10 minute): 2363.0 (±120.0)
mean total activity (±SEM) (20 minute): 1660.6 (±103.8)
mean total activity (±SEM) (30 minute): 1494.01 (±66.5)
mean TIC (time in center) (10 minute): 116.6 (±12.4) seconds
mean TIC (time in center) (20 minute): 152.3 (±20.1) seconds
mean TIC (time in center) (30 minute): 160.3 (±19.6) seconds
TIC, acute (Day 1) (10 minute): 72.1 (±15.0) seconds
TIC, acute (Day 1) (20 minute): 100.2 (±19.0) seconds
TIC, acute (Day 1) (30 minute): 108.9 (±24.4) seconds
total activity, acute cocaine (Day 1) (rat, in vivo): did not increase total activity
locomotor composite incidence scores, VEH-COC vs VEH-SAL (repeated (day 14) cocaine): significantly higher locomotor composite incidence scores
